Values quoted from earlier work, collected in patent US4833152A, “Anti-hypertensive agents” (University of Miami, priority 1987, dated 1989).

Tests used:
[1] = 1 mg per ml, pH about 8, as little as 30 minutes, ambient conditions

For `C[C@H](CS)C(=O)N1CCCC1C(=O)O` (stereo in doubt) [SQ14225, D-3-mercapto-2-methylpropanoyl-L-proline], the “ACE inhibition, in words” value (ACE; U.S. Pat. No. 4,046,889, Cushman 1977, Ondetti 1977) is listed as “highly effective inhibitor” and the “loss of activity of fresh aqueous solution on standing” value [1] is listed as “substantially less active upon standing for as little as 30 minutes”.
In the case of `CC(=O)SC[C@@H](C)C(=O)N1CCC[C@H]1C(=O)O` [S-acetyl derivative], the “potency of the inhibitor on substitution of the sulfhydryl” value (ACE; relative to free sulfhydryl SQ14225, Cushman et al., Biochemistry) is listed as “substantially reduced potency of the inhibitor”.
In the case of `C[C@H](CSSC[C@@H](C)C(=O)N1CCC[C@H]1C(=O)O)C(=O)N1CCC[C@H]1C(=O)O` [disulfide], the “inhibitory activity of the disulfide” value (ACE; disulfide formed by dimerization of SQ14225, believed) is given as “largely inactive as an inhibitor”.
